Assay results from patent publication US20240122179A1, “AUXINIC HERBICIDES AND METHODS OF USE THEREOF” (CORTEVA AGRISCIENCE LLC, priority 2021, published 2024).
Where two headings read alike, the source gives them in different places.

Tests used:
Amaranthus rudis (AMATA) = experiment: Postemergence herbicide evaluation, percent reduction in plant size vs untreated control, 21 days after treatment; format: in vivo, Amaranthus rudis (tall water hemp); conditions: Amaranthus tuberculatus, post-emergence, 504 h, AMATA, postemergence, read-out: Control/Injury; for pest or weed control at 140 g/ha: rate 140 g ae/ha; for pest or weed control at 280 g/ha: rate 280 g ae/ha
Procedure, shortened: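 Growth-reduction values are percent decrease in plant size relative to untreated plants, scored 21 days post-application. Amaranthus rudis (2-8 leaves) received postemergence sprays at 140 or 280 g ae/ha, 187 L/ha, in a mixed acetone/DMSO/water/isopropanol carrier with crop oil concentrate. Greenhouse conditions were 25-28° C, 50-60% RH; 3-4 randomized replicates.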

Glycine max = experiment: whole plant or invertebrate; conditions: for plant injury at 140 g/ha / plant injury at 280 g/ha: Glycine max, post-emergence, 504 h, read-out: Control/Injury
Method: Plants were grown in a soil media composed of 90% by volume Promix BX (Premier Tech Horticulture, Quakertown, PA) and 10% Profile Greens Grade (Profile Products LLC, Buffalo Grove, IL). Promix BX contains approximately 83% Sphagnum Peat Moss, 13% Perlite, 5% vermiculite, and proprietary amounts of limestone, starter fertilizer, and wetting agent. Profile Greens Grade is a sand-sized granule formed from calcining illite and montmorillonite clay. Several seeds of each species were planted in 10 cm square pots and top watered twice daily. Plant material was propagated in a warm greenhouse with temperature ranging from 25 to 28° C. and 50 to 60% relative humidity at the Corteva Global Headquarters (Indianapolis, Indiana, USA). Natural light was supplemented with 1000-watt metal halide overhead lamps with an average illumination of 500 μE m^−2 s^−1 photosynthetic active radiation for 16 consecutive hours each day. Plants were top-watered prior to herbicide application and sub-watered after herbicide application.
Appropriate amounts of test materials were weighed out into glass vials in their technical form to deliver either 140 or 280 g acid equivalent (ae)/ha. The samples were dissolved in 3 ml of Solvent 1. Solvent 1 is 97% acetone and 3% dimethyl sulfoxide and serves as a general-purpose solvent (GPS) for dissolving technical materials. […] The samples were then diluted to their final concentration using 17 ml of solvent 2 for a total of 20 ml of spray solution. Solvent 2 contains 41.58% GPS, 45.53% water, 11.88% isopropyl alcohol, 0.99% crop oil concentrate and 0.02% Trition X-155 surfactant. All percentages are listed on a volume basis. Dicamba diglycolamine was applied as a formulated herbicide, Clarity™ and diluted with solvent 2 to compare all materials in the same spray solution.
Herbicide applications were made to 3 to 4 replicates of each plant species at the 2 to 8 leaf stage, depending on the species. Treatments were applied with a research track-sprayer (Generation III Research Sprayer manufactured by DeVries Manufacturing in Hollandale, MN, USA) calibrated to deliver a spray volume of 187 L/ha. The track-sprayer was fitted with an 8003E nozzle from Spray Systems Company (North Avenue and Schmale Road, P.O. Box 7900, Wheaton, IL 60187), and used a spray pressure of 276 kPa pressure and a speed of 3.1 km/h. The nozzle height was 46 cm above the plant canopy. The experimental design used for the trials was a randomized complete block with 3 or 4 replications per treatment. After application, plants were placed on carts according to the randomization and returned to the greenhouse. Plants were sub-watered after treatment with Indianapolis city water or fertilized three times a week with a commercial fertilizer solution (Jack's Professional 15-5-15 4 Ca 2 Mg fertilizer (manufactured by JR PETERS INC., 6656 Grant Way, Allentown, PA 18106; www.jrpeters.com). Percent visual control assessments were made on a scale of 0 to 100% (where 0 was no control and 100 was complete plant death) at 7, 14, and 21 days after treatment.
In conformity with the methods outlined in Example 49, the effect of representative experimental compounds on the growth of Glycine max was determined at 2 different levels (respectively, 140 and 280 g acid equivalent (ae)/ha) of the experimental actives tested. Plants were treated with one of the compounds, a control plant was not treated. Twenty-one days after treatment, the plants were measured. The data is present as a percent reduction in plant size relative to the untreated control.

Kochia scoparia (KCHSC) = experiment: Postemergence herbicide evaluation, percent reduction in plant size vs untreated control, 21 days after treatment; format: in vivo; conditions: Bassia scoparia, post-emergence, 504 h, KCHSC, postemergence, read-out: Control/Injury; for pest or weed control at 140 g/ha: rate 140 g ae/ha; for pest or weed control at 280 g/ha: rate 280 g ae/ha
Procedure, shortened: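 Values are percent reduction in plant size against an untreated control, measured 21 days after a single postemergence spray at 140 or 280 g ae/ha (187 L/ha, 276 kPa). Treatments used 3-4 randomized complete-block replicates on 2 to 8 leaf-stage plants kept in a 25-28 °C greenhouse, with compounds in acetone/DMSO-based solvent containing crop oil and surfactant.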

[1] = test system: Amaranthus palmeri (AMAPA); experiment: as above; format: in vivo, Amaranthus palmeri (Palmer amaranth); conditions: post-emergence, 504 h, R-AMAPA, postemergence, percent reduction vs untreated control, 21 days after treatment, read-out: Control/Injury; for pest or weed control at 140 g/ha: rate 140 g ae/ha; for pest or weed control at 280 g/ha: rate 280 g ae/ha
Procedure, shortened: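 Percent reduction in plant size relative to untreated plants, measured 21 days after track-sprayer application (187 L/ha) of 140 or 280 g ae/ha to Amaranthus palmeri at the 2 to 8 leaf stage. Randomized complete block, 3 or 4 replicates, greenhouse at 25 to 28° C; spray solution acetone/DMSO with isopropanol, water and crop oil concentrate.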

[2] = test system: Ambrosia artemisiifolia (AMBEL); experiment: as above; format: in vivo, Ambrosia artemisiifolia (common ragweed); conditions: post-emergence, 504 h, AMBEL, postemergence, read-out: Control/Injury; for pest or weed control at 140 g/ha: rate 140 g ae/ha; for pest or weed control at 280 g/ha: rate 280 g ae/ha
Procedure, shortened: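 Test compounds at 140 or 280 g ae/ha were applied by track sprayer (187 L/ha, spray solution containing acetone/DMSO, isopropanol, crop oil, surfactant) to 2–8 leaf plants, 3–4 replicates. Plants were kept in a greenhouse at 25–28 °C. Size reduction was scored against untreated controls at 21 days.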

[3] = test system: Conyza canadensis (L.) (ERICA); experiment: as above; format: in vivo, Conyza canadensis (L.) (Horseweed); conditions: Erigeron canadensis, post-emergence, 504 h, ERICA, postemergence, percent reduction vs untreated control, 21 days after treatment, read-out: Control/Injury; for pest or weed control at 140 g/ha: rate 140 g ae/ha; for pest or weed control at 280 g/ha: rate 280 g ae/ha
Procedure, shortened: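 Track-sprayer applications (187 L/ha, 276 kPa) of 140 or 280 g ae/ha, technical material dissolved in acetone/DMSO then diluted with crop oil and surfactant-containing solvent, to greenhouse Conyza canadensis at 2-8 leaves. After 21 days, size reduction relative to untreated plants was recorded; 3-4 randomized replicates.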

[4] = percent reduction vs untreated control, 21 days after treatment

| Compound | pest or weed control at 140 g/ha (Amaranthus rudis (AMATA)) [%] | pest or weed control at 280 g/ha (Amaranthus rudis (AMATA)) [%] | plant injury at 140 g/ha (Glycine max) [%] | plant injury at 280 g/ha (Glycine max) [%] | pest or weed control at 140 g/ha (Kochia scoparia (KCHSC)) [%] | pest or weed control at 280 g/ha (Kochia scoparia (KCHSC); [4]) [%] | pest or weed control at 140 g/ha [1] [%] | pest or weed control at 280 g/ha [1] [%] | pest or weed control at 140 g/ha [2] [%] | pest or weed control at 280 g/ha [2] [%] | pest or weed control at 140 g/ha [3] [%] | pest or weed control at 280 g/ha [3] [%] | pest or weed control at 140 g/ha (Kochia scoparia (KCHSC); [4]) [%] | Control/Injury (Glycine max; in vivo) | pest or weed control at 280 g/ha (Kochia scoparia (KCHSC)) [%] |
| --- | --- | --- | --- | --- | --- | --- | --- | --- | --- | --- | --- | --- | --- | --- | --- |
| COc1c(Cl)ccc(Cl)c1C(=O)NS(=O)(=O)c1ccc(C)cc1 [Compound A-78] | 12 | 20 | 25 | 67 | 50 | 85 | 23 | 32 | 45 | 57 | 5 | 15 | – | – | – |
| COc1c(Cl)ccc(Cl)c1C(=O)O/N=C(\C)C(C)(C)C [Compound A-82] | 78 | 72 | 27 | 7 | – | 88 | 85 | 83 | 90 | 88 | 91 | 96 | 98 | – | – |
| COc1c(Cl)ccc(Cl)c1C(=O)O/N=C/c1cccnc1 [Compound A-81] | 3 | 8 | 19 | 20 | – | 7 | 17 | 15 | 15 | 27 | 0 | 7 | 2 | – | – |
| COc1c(Cl)ccc(Cl)c1C(=O)ON1C(=O)CCC1=O [Compound A-73] | 50 | 88 | – | 4 | 82 | – | 70 | 83 | 77 | 82 | 85 | 80 | – | 1 | 88 |
